pIC50: −log10 of the molar value.
Legend:
[1] = molecular target: T1, PRMT5/MEP50-MTA protein complex (Homo sapiens, UniProt O14744); assay: Thermal shift assay: change in melting temperature of the PRMT5/MEP50-MTA protein complex; type: binding; details: compound 8 µM, PRMT5/MEP50 2 µM, MTA 2 µM; Tm minus DMSO vehicle control
T1 construct: purchased Viva Biotech
How it was run: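 Human PRMT5/MEP50 (2 µM) preincubated 30 min at room temperature in 50 mM HEPES, 10 mM DTT, 250 mM NaCl with 2 µM MTA and SYPRO Orange. Compound at 8 µM final, 10 min at room temperature, 2.5% DMSO vehicle control. Melt curve 25→95°C at 0.03°C/s gives Tm.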

[2] = tested on: MTAP Knockout HCT116 cells; assay: Cell proliferation inhibition (CellTiter-Glo), MTAP knockout cells; type: cell-based; details: for Selectivity: HCT116 versus MTAP Knockout HCT116; for pIC50: 72-240 hours incubation, CellTiter-Glo
From the text: (§1) Test Example 2: Determination of the inhibitory effect of the compounds of the present invention on the proliferation activity of HCT116 and MTAP Knockout HCT116 cells.
(§2) 1. Experimental objective: to determine the inhibitory effect of the compound on the proliferation activity of HCT116 wild-type and HCT116 MTAP knockout cells. 2. Experimental instruments: Centrifuge (Eppendorf 5810R); microplate reader (BioTek Synergy H1 or PerkinElmer Envision); pipette (Eppendorf or Rainin). 3. Experimental reagents: HCT116 and MTAP Knockout HCT116 cells were purchased from Nanjing Cobioer; Cell Titer-Glo was purchased from Promega (Cat. No. G7573); McCoy' 5A was purchased from Gibco (Cat. No. 12330031); FBS was purchased from Gibco (Cat. No. 10091148); PBS was purchased from Gibco (Cat. No. 10010023); trypsin was purchased from Gibco (Cat. No. 25200056); cell culture plates were purchased from Corning (Cat. No. 3610). 4. Experimental methods: HCT116 and MTAP Knockout HCT116 cells were cultured in McCoy'5A medium containing 10% FBS until an appropriate cell density was reached. The cells were then collected and adjusted to a suitable concentration using complete medium. The cell suspension was seeded into a 96-well plate at 90 µL per well and allowed to adhere overnight in a 37°C, 5% CO2 incubator. Compound solutions of various concentrations were prepared using DMSO and culture medium, with a vehicle control set. The compound solutions were added to the 96-well plate at 10 µL per well, and the plate was incubated in a 37°C, 5% CO2 incubator for an additional 72-240 hours. After incubation, CellTiter-Glo solution was added, and the mixture was mixed uniformly by shaking, followed by incubation in the dark for 10 to 30 minutes. Luminescence was measured using a Synergy H1 or Envision microplate reader. 5. Experimental data processing method: The inhibition rate was calculated using the luminescence signal values, and the concentrations along with the inhibition rates were subjected to non-linear regression curve fitting using Graphpad Prism software to obtain the IC50 values.

[3] = tested on: HCT116 wild-type cells; assay: Cell proliferation inhibition (CellTiter-Glo), wild-type cells; type: cell-based; details: 72-240 hours incubation
From the text: as §1, §2

[4] = in vivo; details: rat, po, 5 mg/kg
Protocol: (§3) Test Example 4: Determination of the pharmacokinetics of the compounds of the present invention in rats (plasma) after oral administration.
(§4) Study objective: SD rats were used as test animals to study the pharmacokinetic behaviour of the following example compounds in rats (plasma) after oral administration at a dose of 5 mg/kg. […] Test scheme 2.1 Test drugs: Vehicle formula: 0.5% CMC-Na (1% Tween 80); the examples of the present invention, prepared in house. 2.2 Test animals: 3 SD rats per group, male, purchased from Shanghai Bikai Keyi Biotechnology Co., Ltd., with animal license number (SCXK (Shanghai) 2018-0006, No.20180006037467). 2.3 Administration: 3 SD rats per group, male, were fasted overnight and then respectively administered PO at a dose of 5 mg/kg and a volume of 10 mL/kg. 2.4 Sample collection: 0.2 mL of blood was collected from the jugular vein of rats before administration and at 0, 0.25, 0.5, 1, 2, 4, 6, 8 and 24 h after administration, and placed in EDTA-K2test tubes, and the test tubes were centrifuged at 6,000 rpm at 4°C for 6 min to separate the plasma, which was stored at -80°C. The animals were fed 4 h after administration. 2.5 Sample treatment • 1) 160 uL of acetonitrile was added to 40 uL of plasma sample for precipitation, and after mixing, the mixture was centrifuged at 3,500 × g for 5-20 minutes. • 2) 100 uL of the treated supernatant solution was taken for LC/MS/MS analysis to determine the concentration of the test compounds. 2.6 Liquid phase analysis • Liquid phase conditions: Shimadzu LC-20AD pump; • Mass spectrometry conditions: AB Sciex API 4000 mass spectrometer; • Chromatographic column: phenomenex Gemiu 5 um C18 50 × 4.6 mm; • Mobile phase: solution A: 0.1% formic acid in water, solution B: methanol; • flow rate: 1.0 mL/min; Elution time: 0-4.0 min, with eluents as follows:
(§5) Experimental results and analysis: The main pharmacokinetic parameters were calculated using WinNonlin 8.2.

[5] = molecular target: T2, hERG potassium channel (Homo sapiens, UniProt Q12809); assay: hERG potassium channel inhibitory activity assay (patch clamp, CHO-hERG cells); type: cell-based; details: tail current, read-out: inhibitory activity (IC50) against the cardiac hERG potassium channel
T2 construct: host or cells: CHO cells stably expressing hERG (CHO-hERG)
T2 sequence (Q12809 whole entry): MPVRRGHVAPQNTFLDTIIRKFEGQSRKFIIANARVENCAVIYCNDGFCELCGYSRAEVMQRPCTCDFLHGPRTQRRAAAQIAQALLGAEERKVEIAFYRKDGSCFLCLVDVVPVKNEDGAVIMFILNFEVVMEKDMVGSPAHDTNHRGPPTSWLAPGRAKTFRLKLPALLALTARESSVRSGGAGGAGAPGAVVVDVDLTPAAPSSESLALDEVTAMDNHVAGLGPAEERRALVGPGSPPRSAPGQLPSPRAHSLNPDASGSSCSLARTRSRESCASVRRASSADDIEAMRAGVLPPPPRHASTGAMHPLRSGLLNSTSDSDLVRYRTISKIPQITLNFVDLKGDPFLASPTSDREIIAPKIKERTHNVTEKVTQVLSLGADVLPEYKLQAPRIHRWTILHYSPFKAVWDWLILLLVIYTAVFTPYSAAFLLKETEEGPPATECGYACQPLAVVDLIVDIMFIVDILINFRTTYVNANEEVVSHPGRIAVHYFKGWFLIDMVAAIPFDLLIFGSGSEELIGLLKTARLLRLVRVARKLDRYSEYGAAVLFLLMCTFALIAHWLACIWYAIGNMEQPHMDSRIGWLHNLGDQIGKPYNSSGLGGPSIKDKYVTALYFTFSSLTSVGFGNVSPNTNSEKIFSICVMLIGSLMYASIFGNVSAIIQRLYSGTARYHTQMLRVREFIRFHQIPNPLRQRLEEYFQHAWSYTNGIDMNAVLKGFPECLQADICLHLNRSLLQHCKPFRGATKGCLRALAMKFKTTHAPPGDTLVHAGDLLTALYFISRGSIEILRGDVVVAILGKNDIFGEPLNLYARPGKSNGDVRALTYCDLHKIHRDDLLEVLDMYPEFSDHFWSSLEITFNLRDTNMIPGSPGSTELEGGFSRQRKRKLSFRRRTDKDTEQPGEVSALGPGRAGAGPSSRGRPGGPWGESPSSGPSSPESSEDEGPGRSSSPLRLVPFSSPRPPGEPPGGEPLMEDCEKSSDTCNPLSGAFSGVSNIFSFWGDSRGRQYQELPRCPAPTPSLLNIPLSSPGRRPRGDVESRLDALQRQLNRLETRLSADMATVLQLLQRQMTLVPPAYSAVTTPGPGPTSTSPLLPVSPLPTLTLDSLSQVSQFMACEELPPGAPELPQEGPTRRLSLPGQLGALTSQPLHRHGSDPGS
From the text: Test Example 5: hERG potassium channel inhibitory activity assay
1. Study objective: to determine the inhibitory effect of the compound on the hERG potassium channel activity. 2. Experimental instruments and reagents: 2.1 Reagents
3. Experimental methods • 3.1 Cell culture: The CHO cells stably expressing the hERG potassium channel (CHO-hERG) used in the experiment were obtained from Sophion Bioscience (Ballerup, Denmark), and passaged and cryopreserved at WuXi AppTec Co., Ltd. in Shanghai. The CHO-hERG cells were cultured and passaged in Ham's F-12 medium containing 1 × GlutaMAX, 10% fetal bovine serum, 100 µg/mL G418 and 100 µg/mL hygromycin B at 37°C with 5% CO2. • 3.2 Preparation of intracellular and extracellular solutions: The extracellular solution was prepared once a month, and aliquoted and stored in 1 L storage bottles. The intracellular solution was prepared once every three months, and aliquoted and cryopreserved at -20°C. The intracellular solution was thawed in a 37°C water bath before the experiment and then placed in an ice bath for later use. • 3.3 Preparation of compounds: The compounds were dissolved in 100% DMSO (Sigma-Aldrich, D2650) to prepare 10 mM or 30 mM stock solutions. Before the experiment, the stock solutions of the test compounds were diluted with DMSO to prepare solutions 1000-fold or 333-fold higher than the desired test concentrations, and then further diluted 1000-fold or 333-fold with the extracellular solution to achieve the desired concentrations. • 3.4 Cell preparation: The CHO-hERG cells used in the experiment were cultured for at least two days. When the cell density reached more than 75%, the cells were digested with TrypLE, then resuspended in the extracellular solution, and centrifuged. The supernatant was discarded, and then the cells were further resuspended in 2 mL of extracellular solution for later use. 4. Experimental data processing: In data processing, the peak tail current was baseline-corrected when evaluating the hERG blocking effect. The effect of each compound at various concentrations was expressed as the inhibition rate of the tail current. IC50 values were obtained by fitting the data to the Hill equation: I/Icontrol = Bottom + (Top−Bottom)/(1+10^(∧)((LogIC50−X)*HillSlope)) [formula] • Top: maximum effect; Bottom: minimum effect; Hillslope: slope; X: concentration of the test compound. • IC50: half-maximal inhibitory concentration of the test compound on hERG. […] 5.

[6] = Pharmacokinetics in rats (plasma) after oral administration; details: rat, 5 mg/kg
Protocol: as §3, §4, §5

[7] = Homo sapiens, HCT-116, MTAP Knockout HCT116 cells
[8] = Homo sapiens, HCT-116, HCT116 wild-type cells

T1 sequence (O14744 whole entry): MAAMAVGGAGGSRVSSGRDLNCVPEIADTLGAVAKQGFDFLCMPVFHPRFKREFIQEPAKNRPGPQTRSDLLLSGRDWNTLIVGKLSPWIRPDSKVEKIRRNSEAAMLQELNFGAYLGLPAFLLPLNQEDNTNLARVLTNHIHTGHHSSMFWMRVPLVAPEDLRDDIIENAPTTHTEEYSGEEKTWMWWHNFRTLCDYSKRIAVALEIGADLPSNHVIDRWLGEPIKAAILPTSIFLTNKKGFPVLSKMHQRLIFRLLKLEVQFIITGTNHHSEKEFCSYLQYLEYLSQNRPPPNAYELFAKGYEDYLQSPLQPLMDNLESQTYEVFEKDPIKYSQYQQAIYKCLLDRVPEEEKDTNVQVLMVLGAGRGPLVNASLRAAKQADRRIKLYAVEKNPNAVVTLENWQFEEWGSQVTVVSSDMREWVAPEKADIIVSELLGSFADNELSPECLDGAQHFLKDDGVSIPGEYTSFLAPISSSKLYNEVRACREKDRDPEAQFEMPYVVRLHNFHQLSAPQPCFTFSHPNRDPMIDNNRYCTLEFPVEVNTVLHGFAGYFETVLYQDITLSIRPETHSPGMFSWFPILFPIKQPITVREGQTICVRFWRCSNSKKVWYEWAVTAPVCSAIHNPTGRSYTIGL
T1 sequence (Q9BQA1 whole entry partner): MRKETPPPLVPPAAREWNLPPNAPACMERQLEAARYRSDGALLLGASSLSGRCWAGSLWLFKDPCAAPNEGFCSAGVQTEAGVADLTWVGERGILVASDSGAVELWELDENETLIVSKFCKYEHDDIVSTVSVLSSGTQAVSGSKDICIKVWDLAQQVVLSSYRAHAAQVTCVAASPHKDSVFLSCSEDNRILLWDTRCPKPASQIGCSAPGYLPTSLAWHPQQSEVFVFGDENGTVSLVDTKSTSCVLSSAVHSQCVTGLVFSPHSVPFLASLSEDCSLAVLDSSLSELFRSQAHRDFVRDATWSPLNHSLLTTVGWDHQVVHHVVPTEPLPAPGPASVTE

Row | Compound | ΔTm at 8 µM [1] [°C] | Selectivity [2] | pIC50 [2, 7] | pIC50 [3, 8] | pIC50 [5] | AUC(0-inf) ([6]; male, SD) [ng·h/mL] | Cmax ([6]; male, SD) [ng/mL] | MRT inf ([6]; male, SD) [h] | Tmax ([6]; male, SD) [h] | half-life ([6]; male, SD) [h] | also measured
1 | CNN(C(=O)c1cc2c3c(c(N)nc2cn1)COC3)C1COc2cc(S(F)(F)(F)(F)F)ccc21 (single isomer, unassigned) [Example 372-P1] | 11.6 | 69 | 7.92 | 6.09 | – | – | – | – | – | – | AUC(0-inf) [4]: 2570 ng·h/mL; Cmax [4]: 378 ng/mL; MRT inf [4]: 4.8 h; Tmax [4]: 2.7 h; half-life [4]: 2.7 h
2 | [2H]C([2H])([2H])NN(C(=O)c1cc2c(cn1)nc(N)c1cnn(C)c12)C1COCc2c1ccn1c(C(F)(F)F)cnc21 (single isomer, unassigned) [Example 391-P1] | – | 14 | – | – | < 4.52 | – | – | – | – | – | ΔTm (°C) [1]: 13.02 °C; pIC50 ([2]; MTAP Knockout HCT116 cells): 8.06; pIC50 ([3]; HCT116 wild-type cells): 6.92
3 | Cc1cc2nc(N)c3cncn3c2cc1C(=O)N(C1COCc2nc(C(F)(F)F)ccc21)N(C)C (centres unmarked) [Example 276, 4-Amino-N',N',7-trimethyl-N-(2-(trifluoromethyl)-5,8-dihydro-6H-pyrano[3,4-b]pyridin-5-yl)imidazo[1,5-a]quinoxaline-8-carbohydrazide] | 10.4 | – | – | – | < 4.52 | – | – | – | – | – | –
4 | CNN(C(=O)c1cc2c3c(c(N)nc2cn1)COC3)[C@@H]1COCc2nc(C(F)(F)F)ccc21 [Example 286-P1, (S)-4-amino-N'-methyl-N-(2-trifluoromethyl-5,8-dihydro-6H-pyrano[3,4-b]pyridin-5-yl)-1,3-dihydrofuro[3,4-c][1,7]naphthyridine-8-carbohydrazide] | 11.1 | 118 | 7.64 | 5.57 | < 4.52 | 1280 | 480 | 2.5 | 0.5 | 2.1 | –
5 | [2H]C([2H])([2H])NN(C(=O)c1cc2c3c(c(N)nc2cn1)COC3)C1COCc2nc(C(F)(F)F)ccc21 (centres unmarked) [Example 321] | 10.9 | – | – | – | < 4.52 | – | – | – | – | – | –
6 | [2H]C([2H])([2H])NN(C(=O)c1cc2c3c(c(N)nc2cn1)[C@@H](C)OC3)[C@@H]1COCc2c1ccn1c(C(F)(F)F)cnc21 [Example 362-P1] | 12 | 68 | 8.17 | 6.35 | < 4.52 | – | – | – | – | – | AUC(0-inf) [6]: 8180 ng·h/mL; Cmax [6]: 2750 ng/mL; MRT inf [6]: 2.8 h; Tmax [6]: 0.7 h; half-life [6]: 2.7 h
7 | [2H]C([2H])([2H])NN(C(=O)c1cc2c3c(c(N)nc2cn1)COC3)C1COCc2c1ccn1c(C(F)(F)F)cnc21 (centres unmarked) [Example 371, 4-Amino-N'-(methyl-d3)-N-(3-(trifluoromethyl)-7,10-dihydro-8H-imidazo[1,2-a]pyrano[3,4-c]pyridin-7-yl)-1,3-dihydrofuro[3,4-c][1,7]naphthyridine-8-carbohydrazide] | 10.6 | – | – | – | < 4.52 | 3730 | 1050 | 4.4 | 0.5 | 4.4 | –
8 | CNN(C(=O)c1cc2c3c(c(N)nc2cn1)COC3)[C@@H]1COCc2nc(S(F)(F)(F)(F)F)ccc21 [Example 374, 4-Amino-N'-methyl-N-(2-pentafluorosulphanyl-5,8-dihydro-6H-pyrano[3,4-b]pyridin-5-yl)-1,3-dihydrofuran[3,4-c][1,7]naphthyridine-8-hydrazide] | 12.3 | 23 | 7.89 | 6.52 | < 4.52 | – | – | – | – | – | AUC(0-inf) [6]: 1180 ng·h/mL; Cmax [6]: 652 ng/mL; MRT inf [6]: 1.9 h; Tmax [6]: 0.5 h; half-life [6]: 1.9 h
9 | [2H]C([2H])([2H])NN(C(=O)c1cc2c(cn1)nc(N)c1cnn(C)c12)C1COCc2c1ccn1c(C(F)(F)F)cnc21 (centres unmarked) [Example 391, 4-Amino-1-methyl-N'-(methyl-d3)-N-(3-trifluoromethyl-7,10-dihydro-8H-imidazo[1,2-a]pyrano[3,4-c]pyridin-7-yl)-1H-pyrazolo[4,3-c][1,7]naphthyridine-8-carbohydrazide] | 12.7 | 28 | 7.89 | – | < 4.52 | 11900 | 1690 | 5.8 | 1.5 | 4.4 | pIC50 ([3]; HCT116 wild-type cells): 6.45

Reference: patent EP4818177A1, “TRICYCLIC DERIVATIVE INHIBITOR, AND PREPARATION METHOD AND USE THEREFOR” (Shanghai Hansoh Biomedical Co., Ltd., priority 2023, dated 2025)
